In brackets after ≈: the same amount, converted by molar mass. Like-named read-outs stand apart in the source and are kept apart here.
Columns and labels:
[1] = tested on: human peripheral blood mononuclear cells (PBMCs); assay: Cell viability (necrotic changes), calcein-AM/propidium iodide staining, flow cytometry; format: cell-based; settings: for concentration from which a decrease in cell viability was noted: significant vs control (P < 0.05); for IC50: PBMC, human PBMCs, 24 h incubation, unit mM printed in b27 only
Procedure: (§1) PBMCs were isolated from leucocyte-buffy coat collected from blood obtained in Blood Bank in Lodz, Poland. […] The testing was approved by the Bioethics Committee of the University of Lodz No. KBBN-UŁ/I/3/2013. PBMCs were diluted with PBS (1:4) and isolated using LSM (1.077 g/cm^3) by centrifugation at 600 g for 30 min at 20°C. PBMCs were collected, suspended in erythrocyte lysis buffer (150 mM NH4Cl, 10 mM NaHCO3, 1 mM EDTA, pH 7.4) and incubated for 5 min at 20°C. Then, PBS was added immediately, and the cells were centrifuged at 200 g for 15 min at 20°C. The supernatant was decanted, and the cells were washed twice with RPMI with L-glutamine and 10% fetal bovine serum (FBS) at 200 g for 15 min. The cells were resuspended in RPMI medium with L-glutamine, 10% FBS and penicylin-streptomycin (0.5%) and counted in haemocytometer. […] The viability of the cells was over 95%.
The calcein-AM/propidum iodide (PI) viability test is commonly used in toxicity assays to detect cell membrane integrity and to quantify the number of viable and necrotic cells. The calcein-AM is hydrolyzed to calcein, which has a negative charge and penetrates living cells, staining them green. PI is one of the most widely used fluorescent markers for staining of necrotic cells. This compound penetrates the cells, in which membrane was damaged, and binds to DNA. This dye has two positive charges, which prevent it from entering intact cells. […] After the incubation, the samples were centrifuged at 300 g for 5 min at 4°C, the supernatant was decanted, and the cells were supplemented with RPMI with L-glutamine and 10% FBS. The samples were treated with calcein-AM and PI in the final concentrations of 0.1 and 1 μM, respectively and incubated for 15 min at 37°C in total darkness. The analysis was performed by flow cytometry (Becton Dickinson, LSR II). FCM gate on PBMCs has been established for data acquisition, and the fluorescence was measured with excitation/emission maxima of 494/517 nm and 535/617 nm for calcein and PI, respectively. The data were recorded for a total of 10,000 events per sample.

[2] = tested on: human peripheral blood mononuclear cells (PBMCs); assay: Determination of the level of adenosine-5'-triphosphate (ATP), luciferase bioluminescence; format: cell-based; settings: for concentration from which a decrease in ATP level was observed / ATP level decreased by up to: 24 h; for concentration from which a decrease in ATP level was observed: significant vs control; for IC50: PBMC, human PBMCs, 24 h incubation, unit inferred, read-out: IC50 for changes in ATP level; for ATP level decreased by up to: 10 mM, control = 100%
Procedure: as §1
The level of ATP in the cells was determined by bioluminescence measurement at 560 nm using recombinant luciferase and its substrate, D-luciferin. The high sensitivity of method enables detection of 0.1 pM ATP. The reaction proceeds in two stages. In the first step, as a result of the reaction of ATP with luciferin, a complex of adenosine with luciferin is formed with simultaneous releasing of phosphate group. Secondly the complex reacts with oxygen resulting in a formation of oxyluciferin and adenosine monophosphate (AMP). Oxyluciferin returning from its excited state to the base state emits luminescence. The reaction requires the presence of magnesium ions.

[3] = tested on: human peripheral blood mononuclear cells (PBMCs); assay: Measurement of cell morphology: size (FSC-A) and granularity (SSC-A) by flow cytometry; format: cell-based; settings: for concentration from which changes in PBMCs granularity (SSC-A) occurred / concentration causing statistically significant changes in FSC-A parameter: 24 h incubation; for activity at 10 µM / activity at 50 µM / activity at 100 µM / activity at 250 µM / activity at 500 µM / activity at 5000 µM: Homo sapiens, PBMC, 4 h; for activity at 10 µM: 0.01 mM; for activity at 50 µM: 0.05 mM; for activity at 100 µM: 0.1 mM; for activity at 250 µM: 0.25 mM; for activity at 500 µM: 0.5 mM; for activity at 5000 µM: 5.0 mM; for increase in FSC-A parameter / increase in SSC-A parameter: strongest change, concentration and time not given
Procedure: as §1
The cells were then analyzed using a flow cytometry (LSR II; Becton-Dickinson). FMC gate on PBMCs has been established for data acquisition, and cell size and granularity were evaluated with simultaneous separate detection of low-angle (FSC-A) and right-angle (SSC-A) light scattering. […] The light scattered near the forward direction (low angle) is expected to be proportional to particle size (volume), whereas scattering at the right angle depends on cell granularity (internal properties of the scattered particles).

[4] = tested on: HUVEC cell line, human kidney cells 293, placenta JEG3 cells; settings: MTT; cited from earlier work
[5] = tested on: choriocarcinoma cell line; settings: MTT test; cited from earlier work
PBMCs = settings: cited from earlier work
[6] = read-out: FSC-A (percent of control)
[7] = read-out: SSC-A (percent of control)

Row | Compound | concentration from which a decrease in cell viability was noted ([1]; 24 h) [mM] | IC50 [1] [mM] | concentration from which a decrease in ATP level was observed [2] [mM] | IC50 [2] [mM] | concentration from which changes in PBMCs granularity (SSC-A) occurred [3] [mM] | activity at 10 µM [3, 6] [%] | activity at 10 µM [3, 7] [%] | activity at 50 µM [3, 6] [%] | activity at 50 µM [3, 7] [%] | activity at 100 µM [3, 6] [%] | activity at 100 µM [3, 7] [%] | activity at 250 µM [3, 6] [%] | activity at 250 µM [3, 7] [%] | activity at 500 µM [3, 6] [%] | activity at 500 µM [3, 7] [%] | activity at 5000 µM [3, 6] [%] | activity at 5000 µM [3, 7] [%] | PBMCs viability decreased by up to ([1]; 10 mM, 24 h, control = 100%) [%] | ATP level decreased by up to [2] [%] | concentration causing statistically significant changes in FSC-A parameter [3] [mM] | also measured
1 | NCP(=O)(O)O [AMPA, aminomethylphosphonic acid] | ≥ 0.5 | > 10 | ≥ 5 | > 10 | ≥ 5 | 101 ± 4.61 | 101 ± 3.75 | 101 ± 4.45 | 100 ± 3.47 | 101 ± 5.04 | 101 ± 2.26 | 101 ± 3.96 | 101 ± 5.74 | 102 ± 3.93 | 101 ± 5.35 | 99.6 ± 5.18 | 102 ± 4.76 |  |  |  | 
2 | O=P(O)(O)CNCP(=O)(O)O [Bis-(phosphonomethyl)amine, bis-(phosphonomethyl)amine] | ≥ 7.5 | 8.7 | ≥ 0.5 | 5.3 | ≥ 7.5 | 101 ± 2.38 | 98.4 ± 2.94 | 99.7 ± 2.54 | 100 ± 2.55 | 99.6 ± 2.04 | 100 ± 3.68 | 100 ± 2.68 | 100 ± 2 | 101 ± 3.34 | 101 ± 1.12 | 100 ± 3.88 | 103 ± 3.17 | 37.2 | 3.4 | ≥ 7.5 | increase in FSC-A parameter [3]: 9%; increase in SSC-A parameter [3]: 92%
3 | O=C(O)CNCP(=O)(O)O [Glyphosate, N-phosphonomethylglycine, reference compound] |  | > 10 | ≥ 5 | 9.6 | ≥ 0.5 | 102 ± 3.55 | 99.2 ± 4.71 | 102 ± 2.94 | 99.7 ± 7.75 | 102 ± 2.38 | 101 ± 9.59 | 102 ± 4.69 | 101 ± 8.1 | 102 ± 3.89 | 102 ± 5.94 | 101 ± 3 | 104 ± 7.27 |  |  |  | decrease in cell viability ([1]; 10 mM, 24 h, control = 100%): 2.7%; concentration significantly affecting cell viability [4]: 100 µM; EC50 [5]: 16 mM; IC50 (cytotoxic effects) (PBMCs): 56.4 µg/mL (≈ 334 µM)
4 | O=P(O)(O)CO [Hydroxy-methylphosphonic acid, hydroxymethylphosphonic acid] | ≥ 7.5 | > 10 | ≥ 5 | > 10 | ≥ 5 | 100 ± 2 | 96.8 ± 4.77 | 100 ± 1.84 | 97.6 ± 4.71 | 100 ± 1.91 | 99.4 ± 1.17 | 101 ± 3.68 | 100 ± 3.33 | 100 ± 2.4 | 101 ± 2.05 | 100 ± 2.94 | 102 ± 2.14 |  |  |  | 
5 | CN(CC(=O)O)CP(=O)(O)O [N-methylglyphosate] | ≥ 7.5 | > 10 | ≥ 0.5 | > 10 | ≥ 5 | 102 ± 3.97 | 101 ± 4.68 | 102 ± 2.66 | 101 ± 4.81 | 103 ± 3.27 | 102 ± 3.57 | 101 ± 5.72 | 102 ± 4.73 | 101 ± 4.66 | 102 ± 8.82 | 100 ± 4.82 | 102 ± 7.27 |  |  |  | 
6 | O=C(O)CN(CC(=O)O)CP(=O)(O)O [PMIDA, N-(phosphonomethyl)iminodiacetic acid] | ≥ 5 | 7.9 | ≥ 5 | 6.1 | 10 | 100 ± 2.09 | 97.5 ± 4.97 | 100 ± 2.21 | 98.1 ± 5.81 | 100 ± 3.36 | 99.2 ± 5.42 | 100 ± 2.65 | 99.3 ± 4.63 | 100 ± 2.65 | 99.8 ± 6.3 | 101 ± 4.59 | 105 ± 5.12 | 3.4 | 2.1 | 10 | increase in FSC-A parameter [3]: 13%; increase in SSC-A parameter [3]: 150%

Reference: article PMC4900596 (PLoS ONE, 2016)
